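Compound exposure: 48 hours, 5 concentrations, 96-well plates. Definition used: TGI = concentration required for complete inhibition of growth.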 Where a SMILES comes first, the peptide text is derived from it. The star is where a group is joined. Cbz = O=C(OCc1ccccc1)*; Boc = CC(C)(C)OC(=O)*; OBn = c1ccc(CO*)cc1
Columns and labels:
Test in all cases: NCI-60 cell line screen, 48 h
HS 578T breast = tested on: HS 578T breast
M14 melanoma = tested on: M14 melanoma
HCT-116 colon = tested on: HCT-116 colon
HOP-62 NSCLC = tested on: HOP-62 NSCLC
SF-295 CNS = tested on: SF-295 CNS
MDA-MB-231 breast = tested on: MDA-MB-231 breast
UO-31 renal = tested on: UO-31 renal
K-562 leukemia = tested on: K-562 leukemia
COLO 205 colon = tested on: COLO 205 colon
T-47D breast = tested on: T-47D breast
OVCAR-8 ovarian = tested on: OVCAR-8 ovarian
SK-OV-3 ovarian = tested on: SK-OV-3 ovarian
OVCAR-5 ovarian = tested on: OVCAR-5 ovarian
DU-145 prostate = tested on: DU-145 prostate
SK-MEL-5 melanoma = tested on: SK-MEL-5 melanoma
RXF 393 renal = tested on: RXF 393 renal
HCT-15 colon = tested on: HCT-15 colon
HCC-2998 colon = tested on: HCC-2998 colon

| Structure (SMILES) | TGI (HS 578T breast) [µM] | TGI (M14 melanoma) [µM] | TGI (HCT-116 colon) [µM] | TGI (HOP-62 NSCLC) [µM] | TGI (SF-295 CNS) [µM] | TGI (MDA-MB-231 breast) [µM] | TGI (UO-31 renal) [µM] | TGI (K-562 leukemia) [µM] | TGI (COLO 205 colon) [µM] | TGI (T-47D breast) [µM] | TGI (OVCAR-8 ovarian) [µM] | TGI (SK-OV-3 ovarian) [µM] | TGI (OVCAR-5 ovarian) [µM] | TGI (DU-145 prostate) [µM] | TGI (SK-MEL-5 melanoma) [µM] | TGI (RXF 393 renal) [µM] | TGI (HCT-15 colon) [µM] | TGI (HCC-2998 colon) [µM] |
| --- | --- | --- | --- | --- | --- | --- | --- | --- | --- | --- | --- | --- | --- | --- | --- | --- | --- | --- |
| CN(Cc1cnc2nc(N)nc(N)c2n1)c1ccc(C(=O)NC2CCCCC2)cc1 | 63.4 | 29 | > 100 | > 100 | > 100 | > 100 | > 100 | > 100 | > 100 | > 100 | > 100 | > 100 | > 100 | > 100 | 38.1 | > 100 | > 100 | – |
| COc1cc([C@@H]2c3cc4c(cc3[C@@H](N=Cc3ccc(C(=O)O[C@H]5C[C@H]6OC[C@@]6(OC(C)=O)[C@H]6[C@H](OC(=O)c7ccccc7)[C@]7(O)C[C@H](OC(=O)[C@H](OC(=O)c8ccc(C=N[C@@H]9c%10cc%11c(cc%10[C@@H](c%10cc(OC)c(O)c(OC)c%10)[C@H]%10C(=O)OC[C@@H]%109)OCO%11)cc8)[C@@H](NC(=O)c8ccccc8)c8ccccc8)C(C)=C([C@@H](OC(C)=O)C(=O)[C@]56C)C7(C)C)cc3)C3COC(=O)C32)OCO4)cc(C)c1O (some centres not stated) | > 50 | > 21 | > 50 | > 50 | > 50 | > 43.4 | – | > 50 | > 50 | > 50 | > 50 | > 39.3 | > 23.6 | > 50 | > 50 | > 50 | > 50 | > 50 |
| CC1C2CC(CC2=O)C1(C)C (configuration not stated) | > 100 | > 100 | > 100 | > 100 | > 100 | > 100 | > 100 | > 100 | > 100 | > 100 | > 100 | > 100 | > 100 | > 100 | > 100 | > 100 | – | > 100 |
| COc1ccc(-n2c(-c3ccccc3)cc(-c3cccs3)c2-c2cccs2)cc1 | > 100 | > 100 | > 100 | > 100 | > 100 | > 100 | > 100 | – | > 100 | > 100 | > 100 | > 100 | > 100 | > 100 | > 100 | > 100 | > 100 | > 100 |
| Nc1nc(SCC(=O)c2ccccc2)nc2nc3c(c(-c4ccccc4)c12)CCCC3 | 64 | > 100 | > 100 | > 100 | – | > 100 | > 100 | > 100 | – | > 100 | 89 | 76.8 | > 100 | > 100 | > 100 | 70.8 | > 100 | > 100 |
| Cc1ccc(NC(=O)c2cc(S(=O)(=O)N3CCNNC3=O)c(S)cc2Cl)cc1 | > 100 | > 100 | > 100 | – | > 100 | > 100 | > 100 | > 100 | > 100 | > 100 | > 100 | – | > 100 | > 100 | > 100 | 80.6 | > 100 | > 100 |
| Cc1oc2nc(N(C)C)n3c(C)nnc3c2c1C | > 100 | > 100 | > 100 | – | > 100 | > 100 | > 100 | > 100 | > 100 | > 100 | > 100 | > 100 | > 100 | > 100 | > 100 | > 100 | > 100 | > 100 |
| CSc1nc2ccccc2c(=O)n1-c1cccc(C)c1 | > 100 | > 100 | > 100 | > 100 | > 100 | > 100 | – | > 100 | > 100 | > 100 | > 100 | > 100 | > 100 | > 100 | 66.2 | > 100 | > 100 | 35.1 |
| O=C(CN1c2ccccc2Sc2ccccc21)n1cnc2ccccc21 | > 100 | > 100 | > 100 | > 100 | > 100 | > 100 | > 100 | > 100 | > 100 | > 100 | > 100 | > 100 | > 100 | > 100 | > 100 | > 100 | > 100 | – |
| CC(C)Cn1cnnc1NS(=O)(=O)c1cc(C(=O)NN)c(Cl)cc1S | > 10 | > 10 | > 10 | > 10 | > 10 | > 10 | – | > 10 | > 10 | > 10 | > 10 | > 10 | > 10 | > 10 | > 10 | > 10 | > 10 | > 10 |
| C[C@H]1ON2CCC[C@@H]2[C@@H]1C(=O)N1C2CC3CCC2(CS1(=O)=O)C3(C)C (some centres not stated) | > 100 | > 100 | > 100 | > 100 | > 100 | > 100 | – | > 100 | > 100 | > 100 | > 100 | > 100 | > 100 | > 100 | > 100 | > 100 | > 100 | > 100 |
| COC(=O)C(CCCCNC(=O)OCc1ccccc1)NC(=O)C(CCC(=O)OCc1ccccc1)NC(=O)OC(C)(C)C (configuration not stated) (Boc-Glu(OBn)-Lys(Cbz)-OMe; configuration not given here) | > 100 | > 100 | > 100 | 32.2 | > 100 | > 100 | > 100 | > 100 | > 100 | > 100 | > 100 | > 100 | > 100 | > 100 | > 100 | > 100 | > 100 | – |
